Experimental data taken from ChEMBL document CHEMBL1201861, “Genomics of Drug Sensitity in Cancer screening data, Wellcome Trust Sanger Institute”.

Experiments:
Assay in all cases: cells
Type in all cases: functional, cell-based, Homo sapiens
CW-2 = settings: Homo sapiens, CW-2;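 also: growth inhibition of CW-2 cells, read out by a cell viability assay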
Description: SANGER: Inhibition of human CW-2 cell growth in a cell viability assay.

EC-GI-10 = settings: Homo sapiens, EC-GI-10
Description: SANGER: Inhibition of human EC-GI-10 cell growth in a cell viability assay.

ES4 = settings: Homo sapiens, ES4;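 also: growth inhibition of human ES4 cells, read out by a cell viability assay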
Description: SANGER: Inhibition of human ES4 cell growth in a cell viability assay.

ES5 = settings: Homo sapiens, ES5;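 also: growth inhibition of human ES5 cells, read out by a cell viability assay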
Description: SANGER: Inhibition of human ES5 cell growth in a cell viability assay.

ES6 = settings: Homo sapiens, ES6;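 also: growth inhibition of human ES6 cells, read out with a cell viability assay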
Description: SANGER: Inhibition of human ES6 cell growth in a cell viability assay.

ES7 = settings: Homo sapiens, ES7;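 also: growth inhibition of cultured human ES7 cells, read out as cell viability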
Description: SANGER: Inhibition of human ES7 cell growth in a cell viability assay.

GI-ME-N = settings: Homo sapiens, GI-ME-N;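 also: growth inhibition of human GI-ME-N cells, read out with a cell viability assay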
Description: SANGER: Inhibition of human GI-ME-N cell growth in a cell viability assay.

JVM-2 = settings: Homo sapiens, JVM-2;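 also: growth inhibition of JVM-2 cells determined by a cell viability assay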
Description: SANGER: Inhibition of human JVM-2 cell growth in a cell viability assay.

JVM-3 = settings: Homo sapiens, JVM-3;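 also: growth inhibition of human JVM-3 cells, read out with a cell viability assay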
Description: SANGER: Inhibition of human JVM-3 cell growth in a cell viability assay.

K562 = settings: Homo sapiens, K562
Description: SANGER: Inhibition of human K-562 cell growth in a cell viability assay.

KALS-1 = settings: Homo sapiens, KALS-1;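 also: growth inhibition of KALS-1 cells, determined with a cell viability assay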
Description: SANGER: Inhibition of human KALS-1 cell growth in a cell viability assay.

KARPAS-299 = settings: Homo sapiens, KARPAS-299
Description: SANGER: Inhibition of human KARPAS-299 cell growth in a cell viability assay.

KARPAS-45 = settings: Homo sapiens, KARPAS-45;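 also: inhibition of cell line growth, read out through a viability assay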
Description: SANGER: Inhibition of human KARPAS-45 cell growth in a cell viability assay.

KE-37 = settings: Homo sapiens, KE-37;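 also: growth inhibition of KE-37 cells, read out with a cell viability assay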
Description: SANGER: Inhibition of human KE-37 cell growth in a cell viability assay.

KG-1 = settings: Homo sapiens, KG-1;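 also: growth inhibition of KG-1 cells, read out by a cell viability assay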
Description: SANGER: Inhibition of human KG-1 cell growth in a cell viability assay.

KGN = settings: Homo sapiens, KGN;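 also: growth inhibition of KGN cells, read out with a cell viability assay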
Description: SANGER: Inhibition of human KGN cell growth in a cell viability assay.

KINGS-1 = settings: Homo sapiens, KINGS-1;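 also: cell viability assay measuring suppression of KINGS-1 cell growth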
Description: SANGER: Inhibition of human KINGS-1 cell growth in a cell viability assay.

KY821 = settings: Homo sapiens, KY821;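 also: growth inhibition of human KY821 cells, read out by a cell viability assay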
Description: SANGER: Inhibition of human KY821 cell growth in a cell viability assay.

LB373-MEL-D = settings: Homo sapiens, LB373-MEL-D;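 also: growth inhibition of the cell line, read out in a cell viability assay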
Description: SANGER: Inhibition of human LB373-MEL-D cell growth in a cell viability assay.

LB831-BLC = settings: Homo sapiens, LB831-BLC;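 also: growth inhibition of LB831-BLC cells, read out with a cell viability assay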
Description: SANGER: Inhibition of human LB831-BLC cell growth in a cell viability assay.

LC-2-ad = settings: Homo sapiens, LC-2-ad;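 also: growth inhibition of human LC-2-ad cells, read out with a cell viability assay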
Description: SANGER: Inhibition of human LC-2-ad cell growth in a cell viability assay.

LS-411N = settings: Homo sapiens, LS-411N
LS-513 = settings: Homo sapiens, LS-513
Description: SANGER: Inhibition of human LS-513 cell growth in a cell viability assay.

Lu-65 = settings: Homo sapiens, Lu-65;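 also: growth inhibition of Lu-65 cancer cells, read out by a cell viability assay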
Description: SANGER: Inhibition of human LU-65 cell growth in a cell viability assay.

MOLT-16 = settings: Homo sapiens, MOLT-16;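 also: growth inhibition of human MOLT-16 cells, read out with a cell viability assay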
Description: SANGER: Inhibition of human MOLT-16 cell growth in a cell viability assay.

MZ2-MEL = settings: Homo sapiens, MZ2-MEL;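 also: growth inhibition of MZ2-MEL cells read out with a cell viability assay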
Description: SANGER: Inhibition of human MZ2-MEL cell growth in a cell viability assay.

NB10 = settings: Homo sapiens, NB10;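 also: growth inhibition of NB10 cells, read out by a cell viability assay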
Description: SANGER: Inhibition of human NB10 cell growth in a cell viability assay.

NCI-H1581 = settings: Homo sapiens, NCI-H1581;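 also: cell growth inhibition read out by a viability assay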
Description: SANGER: Inhibition of human NCI-H1581 cell growth in a cell viability assay.

NCI-H1648 = settings: Homo sapiens, NCI-H1648;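 also: cell viability assay measuring inhibition of NCI-H1648 cell growth, from the Sanger screening data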
Description: SANGER: Inhibition of human NCI-H1648 cell growth in a cell viability assay.

NCI-H1650 = settings: Homo sapiens, NCI-H1650;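 also: growth inhibition of human NCI-H1650 cells measured by a cell viability assay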
Description: SANGER: Inhibition of human NCI-H1650 cell growth in a cell viability assay.

NCI-H446 = settings: Homo sapiens, NCI-H446;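 also: growth inhibition of NCI-H446 cells determined by a cell viability assay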
Description: SANGER: Inhibition of human NCI-H446 cell growth in a cell viability assay.

NCI-N87 = settings: Homo sapiens, NCI-N87;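 also: growth inhibition of human NCI-N87 cells, read out with a cell viability assay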
Description: SANGER: Inhibition of human NCI-N87 cell growth in a cell viability assay.

NEC8 = settings: Homo sapiens, NEC8;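 also: growth inhibition of human NEC8 cells, read out by a cell viability assay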
Description: SANGER: Inhibition of human NEC8 cell growth in a cell viability assay.

NMC-G1 = settings: Homo sapiens, NMC-G1;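 also: growth inhibition of the NMC-G1 cell line, measured with a cell viability read-out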
Description: SANGER: Inhibition of human NMC-G1 cell growth in a cell viability assay.

NOMO-1 = settings: Homo sapiens, NOMO-1;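 also: growth inhibition of human NOMO-1 cells measured by a cell viability assay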
Description: SANGER: Inhibition of human NOMO-1 cell growth in a cell viability assay.

NOS-1 = settings: Homo sapiens, NOS-1;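 also: growth inhibition of the human NOS-1 cell line, read out with a cell viability assay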
Description: SANGER: Inhibition of human NOS-1 cell growth in a cell viability assay.

P30-OHK = settings: Homo sapiens, P30-OHK;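 also: growth inhibition of the P30-OHK cell line, read out with a cell viability assay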
Description: SANGER: Inhibition of human P30-OHK cell growth in a cell viability assay.

PSN1 = settings: Homo sapiens, PSN1;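 also: suppression of growth of human PSN1 cells, read out by a cell viability assay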
Description: SANGER: Inhibition of human PSN1 cell growth in a cell viability assay.

RKO = settings: Homo sapiens, RKO;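 also: growth inhibition of human RKO cells, read out with a cell viability assay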
Description: SANGER: Inhibition of human RKO cell growth in a cell viability assay.

RPMI-8226 = settings: Homo sapiens, RPMI-8226
Description: SANGER: Inhibition of human RPMI-8226 cell growth in a cell viability assay.

SBC-1 = settings: Homo sapiens, SBC-1;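 also: cell viability assay measuring growth inhibition of the SBC-1 cell line, IC50 being the concentration that halves growth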
Description: SANGER: Inhibition of human SBC-1 cell growth in a cell viability assay.

SCH = settings: Homo sapiens, SCH;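 also: growth inhibition of human SCH cells, read out in a cell viability assay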
Description: SANGER: Inhibition of human SCH cell growth in a cell viability assay.

SW684 = settings: Homo sapiens, SW684;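 also: growth inhibition of human SW684 cells, measured by a cell viability assay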
Description: SANGER: Inhibition of human SW684 cell growth in a cell viability assay.

SW872 = settings: Homo sapiens, SW872;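 also: growth inhibition of SW872 cells, read out by a viability assay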
Description: SANGER: Inhibition of human SW872 cell growth in a cell viability assay.

A101D = settings: Homo sapiens, A101D;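 also: growth inhibition of the cell line, measured with a viability assay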
Description: SANGER: Inhibition of human A101D cell growth in a cell viability assay.

ACN = settings: Homo sapiens, ACN;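 also: growth inhibition of the human ACN cell line, read out via cell viability testing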
Description: SANGER: Inhibition of human ACN cell growth in a cell viability assay.

BT-474 = settings: Homo sapiens, BT-474
Description: SANGER: Inhibition of human BT-474 cell growth in a cell viability assay.

TE-10 = settings: Homo sapiens, TE-10;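 also: growth inhibition of TE-10 cells, measured by a cell viability assay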
Description: SANGER: Inhibition of human TE-10 cell growth in a cell viability assay.

TE-11 = settings: Homo sapiens, TE-11;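 also: growth inhibition of human TE-11 cells, read out by a cell viability assay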
Description: SANGER: Inhibition of human TE-11 cell growth in a cell viability assay.

TK-10 = settings: Homo sapiens, TK-10;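 also: growth inhibition of TK-10 cells, read out in a cell viability assay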
Description: SANGER: Inhibition of human TK10 cell growth in a cell viability assay.

CCC/C=C/C=C/C(=O)O[C@H]1/C(=C/C(=O)OC)C[C@H]2C[C@H]([C@@H](C)O)OC(=O)C[C@H](O)C[C@@H]3C[C@H](OC(C)=O)C(C)(C)[C@](O)(C[C@@H]4C/C(=C/C(=O)OC)C[C@H](/C=C/C(C)(C)[C@]1(O)O2)O4)O3 [BRYOSTATIN 1]
IC50 (CW-2): > 8 nM
IC50 (EC-GI-10): > 8 nM
IC50 (ES4): > 8 nM
IC50 (ES5): > 8 nM
IC50 (ES6): > 8 nM
IC50 (ES7): > 8 nM
IC50 (GI-ME-N): > 8 nM
IC50 (JVM-2): > 8 nM
IC50 (JVM-3): > 8 nM
IC50 (K562): > 8 nM
IC50 (KALS-1): > 8 nM
IC50 (KARPAS-299): > 8 nM
IC50 (KARPAS-45): > 8 nM
IC50 (KE-37): > 8 nM
IC50 (KG-1): > 8 nM
IC50 (KGN): > 8 nM
IC50 (KINGS-1): > 8 nM
IC50 (KY821): > 8 nM
IC50 (LB373-MEL-D): > 8 nM
IC50 (LB831-BLC): > 8 nM
IC50 (LC-2-ad): > 8 nM
IC50 (LS-411N): > 8 nM
IC50 (LS-513): > 8 nM
IC50 (Lu-65): > 8 nM
IC50 (MOLT-16): > 8 nM
IC50 (MZ2-MEL): > 8 nM
IC50 (NB10): > 8 nM
IC50 (NCI-H1581): > 8 nM
IC50 (NCI-H1648): > 8 nM
IC50 (NCI-H1650): > 8 nM
IC50 (NCI-H446): > 8 nM
IC50 (NCI-N87): > 8 nM
IC50 (NEC8): > 8 nM
IC50 (NMC-G1): > 8 nM
IC50 (NOMO-1): > 8 nM
IC50 (NOS-1): > 8 nM
IC50 (P30-OHK): > 8 nM
IC50 (PSN1): > 8 nM
IC50 (RKO): > 8 nM
IC50 (RPMI-8226): > 8 nM
IC50 (SBC-1): > 8 nM
IC50 (SCH): > 8 nM
IC50 (SW684): > 8 nM
IC50 (SW872): > 8 nM
IC50 (A101D): > 8 nM
IC50 (ACN): > 8 nM
IC50 (BT-474): > 8 nM
IC50 (TE-10): > 8 nM
IC50 (TE-11): > 8 nM
IC50 (TK-10): > 8 nM

COc1cccc2c1C(=O)c1c(O)c3c(c(O)c1C2=O)C[C@@](O)(C(=O)CO)C[C@@H]3O[C@H]1C[C@H](N)[C@H](O)[C@H](C)O1 [DOXORUBICIN]
IC50 (CW-2): > 1020 nM
IC50 (EC-GI-10): > 1020 nM
IC50 (ES4): 6.11 nM
IC50 (ES5): 39.2 nM
IC50 (ES6): 137 nM
IC50 (ES7): 51.4 nM
IC50 (GI-ME-N): 93.3 nM
IC50 (JVM-2): 242 nM
IC50 (JVM-3): > 1020 nM
IC50 (K562): 386 nM
IC50 (KALS-1): 29.3 nM
IC50 (KARPAS-299): > 1020 nM
IC50 (KARPAS-45): > 1020 nM
IC50 (KE-37): 21 nM
IC50 (KG-1): 362 nM
IC50 (KGN): 6.34 nM
IC50 (KINGS-1): 1020 nM
IC50 (KY821): > 1020 nM
IC50 (LB373-MEL-D): 345 nM
IC50 (LB831-BLC): 206 nM
IC50 (LC-2-ad): 5.07 nM
IC50 (LS-411N): 99.1 nM
IC50 (LS-513): > 1020 nM
IC50 (Lu-65): 346 nM
IC50 (MOLT-16): 290 nM
IC50 (MZ2-MEL): 33.9 nM
IC50 (NB10): 188 nM
IC50 (NCI-H1581): 981 nM
IC50 (NCI-H1648): 132 nM
IC50 (NCI-H1650): 78.6 nM
IC50 (NCI-H446): > 1020 nM
IC50 (NCI-N87): 480 nM
IC50 (NEC8): 33.6 nM
IC50 (NMC-G1): 139 nM
IC50 (NOMO-1): 224 nM
IC50 (NOS-1): 79.1 nM
IC50 (P30-OHK): 57.6 nM
IC50 (PSN1): 11.2 nM
IC50 (RKO): 22.3 nM
IC50 (RPMI-8226): 213 nM
IC50 (SBC-1): 156 nM
IC50 (SCH): > 1020 nM
IC50 (SW684): > 1020 nM
IC50 (SW872): 121 nM
IC50 (A101D): 51.5 nM
IC50 (ACN): 31.1 nM
IC50 (BT-474): 779 nM
IC50 (TE-10): 113 nM
IC50 (TE-11): 241 nM
IC50 (TK-10): 115 nM

Nc1ccn([C@@H]2O[C@H](CO)[C@@H](O)C2(F)F)c(=O)n1 [GEMCITABINE]
IC50 (CW-2): > 1020 nM
IC50 (EC-GI-10): > 1020 nM
IC50 (ES4): < 4 nM
IC50 (ES5): > 1020 nM
IC50 (ES6): < 4 nM
IC50 (ES7): 19.8 nM
IC50 (GI-ME-N): > 1020 nM
IC50 (JVM-2): > 1020 nM
IC50 (JVM-3): > 1020 nM
IC50 (K562): 333 nM
IC50 (KALS-1): 21.4 nM
IC50 (KARPAS-299): 252 nM
IC50 (KARPAS-45): > 1020 nM
IC50 (KE-37): < 4 nM
IC50 (KG-1): 62.2 nM
IC50 (KGN): < 4 nM
IC50 (KINGS-1): > 1020 nM
IC50 (KY821): > 1020 nM
IC50 (LB373-MEL-D): > 1020 nM
IC50 (LB831-BLC): 41.9 nM
IC50 (LC-2-ad): < 4 nM
IC50 (LS-411N): 29.9 nM
IC50 (LS-513): 888 nM
IC50 (Lu-65): 304 nM
IC50 (MOLT-16): 43.1 nM
IC50 (MZ2-MEL): 26.2 nM
IC50 (NB10): 24.4 nM
IC50 (NCI-H1581): > 1020 nM
IC50 (NCI-H1648): 511 nM
IC50 (NCI-H1650): 25.4 nM
IC50 (NCI-H446): 269 nM
IC50 (NCI-N87): 333 nM
IC50 (NEC8): 35.4 nM
IC50 (NMC-G1): 8.76 nM
IC50 (NOMO-1): 28.7 nM
IC50 (NOS-1): 32.4 nM
IC50 (P30-OHK): 1.46 nM
IC50 (PSN1): < 4 nM
IC50 (RKO): < 4 nM
IC50 (RPMI-8226): 16 nM
IC50 (SBC-1): 166 nM
IC50 (SCH): > 1020 nM
IC50 (SW684): > 1020 nM
IC50 (SW872): < 4 nM
IC50 (A101D): 9.37 nM
IC50 (ACN): < 4 nM
IC50 (BT-474): > 1020 nM
IC50 (TE-10): 16.2 nM
IC50 (TE-11): > 1020 nM
IC50 (TK-10): 14.5 nM

O=C(O)c1ccc(-c2c[nH]c3ncc(-c4ccccc4)cc23)cc1C1CCCC1 [GSK-650394]
IC50 (CW-2): > 16000 nM
IC50 (EC-GI-10): > 16000 nM
IC50 (ES4): 4060 nM
IC50 (ES5): > 16000 nM
IC50 (ES6): 8670 nM
IC50 (ES7): > 16000 nM
IC50 (GI-ME-N): > 16000 nM
IC50 (JVM-2): > 16000 nM
IC50 (JVM-3): > 16000 nM
IC50 (K562): > 16000 nM
IC50 (KALS-1): > 16000 nM
IC50 (KARPAS-299): > 16000 nM
IC50 (KARPAS-45): > 16000 nM
IC50 (KE-37): > 16000 nM
IC50 (KG-1): > 16000 nM
IC50 (KGN): > 16000 nM
IC50 (KINGS-1): > 16000 nM
IC50 (KY821): > 16000 nM
IC50 (LB373-MEL-D): > 16000 nM
IC50 (LB831-BLC): > 16000 nM
IC50 (LC-2-ad): > 16000 nM
IC50 (LS-411N): 10400 nM
IC50 (LS-513): > 16000 nM
IC50 (Lu-65): > 16000 nM
IC50 (MOLT-16): 3520 nM
IC50 (MZ2-MEL): 6610 nM
IC50 (NB10): > 16000 nM
IC50 (NCI-H1581): > 16000 nM
IC50 (NCI-H1648): > 16000 nM
IC50 (NCI-H1650): > 16000 nM
IC50 (NCI-H446): > 16000 nM
IC50 (NCI-N87): > 16000 nM
IC50 (NEC8): > 16000 nM
IC50 (NMC-G1): > 16000 nM
IC50 (NOMO-1): > 16000 nM
IC50 (NOS-1): > 16000 nM
IC50 (P30-OHK): 6210 nM
IC50 (PSN1): 2190 nM
IC50 (RKO): 1580 nM
IC50 (RPMI-8226): > 16000 nM
IC50 (SBC-1): > 16000 nM
IC50 (SCH): > 16000 nM
IC50 (SW684): > 16000 nM
IC50 (SW872): 13700 nM
IC50 (A101D): 9270 nM
IC50 (ACN): > 16000 nM
IC50 (BT-474): > 16000 nM
IC50 (TE-10): 14500 nM
IC50 (TE-11): > 16000 nM
IC50 (TK-10): > 16000 nM
